Data on eight compounds can be found in patent US20130053337A1, “GUANIDINYLATED AMINOGLYCOSIDE-LIPID CONJUGATES” (UNIVERSITY OF MANITOBA, priority 2010, published 2013).

Data set [1] concerns E. faecium ATCC 27270. In words: MIC, broth macrodilution (CLSI). The class given is cell-based, Enterococcus faecium. To be noted: E. facium ATCC27270. The procedure: (§1) All experiments were performed in duplicate.
(§2) Bacterial isolates studied included both reference strains obtained from the American Type Culture Collection (ATCC) as well as clinical strains obtained from the CAN-ICU study which was a national surveillance study assessing the prevalence of antimicrobial resistant pathogens in Canadian intensive care units (Zhanel et al., 2008). Isolates were kept frozen in skim milk at −80° C. until minimum inhibitory concentration (MIC) testing was carried out. Following two subcultures from frozen stock, the in vitro activities of peptides were determined by macrobroth dilution in accordance with the Clinical and Laboratory Standards Institute (CLSI) 2006 guidelines (Zhanel et al., 2008). Stock solutions of peptides were prepared and dilutions made as described by CLSI. Test tubes contained doubling antimicrobial dilutions of cation adjusted Mueller-Hinton broth and inoculated to achieve a final concentration of approximately 5×10^5 cfu/ml then incubated in ambient air for 24 hours prior to reading. Colony counts were performed periodically to confirm inocula. Quality control was regularly performed using ATCC QC organisms.

The test system of data set [2] is S. aureus ATCC 29213. Put plainly: MIC, broth macrodilution (CLSI). The class given is cell-based, Staphylococcus aureus. The following applies: S. aureus ATCC29213. The procedure: as §1, §2
Data set [3] deals with E. coli (gentamicin-resistant) CAN-ICU 61714. In words: MIC, broth macrodilution (CLSI). The following applies: E. coli CAN-ICU 61714. The class given is cell-based. The procedure:
as §1, §2

The test system of data set [4] is P. aeruginosa ATCC 27853. In words: MIC, broth macrodilution (CLSI). The class given is cell-based. To be noted: P. aeruginosa ATCC27853. The procedure:
as §1, §2

For data set [5], the system named is E. coli ATCC 25922. Put plainly: MIC, broth macrodilution (CLSI). To be noted: E. coli ATCC25922. The class given is cell-based. The method, then: as §1, §2
The subject of data set [6] is P. aeruginosa (gentamicin-resistant) CAN-ICU 62308. Put plainly: MIC, broth macrodilution (CLSI). The class given is cell-based. The method, then:
as §1, §2

Data set [7] concerns E. coli (amikacin MIC 32 mg/L) CAN-ICU 63074. In words: MIC, broth macrodilution (CLSI). To be noted: E. coli CAN-ICU 63074. The class given is cell-based. The method, then: as §1, §2
Data set [8] concerns E. faecalis ATCC 29212. In words: MIC, broth macrodilution (CLSI). The class given is cell-based, Enterococcus faecalis. The following applies: E. faecalis ATCC29212. The procedure:
as §1, §2

The subject of data set [9] is MRSE CAN-ICU 61589. Put plainly: MIC, broth macrodilution (CLSI). Format: cell-based, methicillin-resistant Staphylococcus epidermidis. The method, then:
as §1, §2

The subject of data set [10] is S. pneumoniae ATCC 49619. In words: MIC, broth macrodilution (CLSI), broth with 5% laked horse blood. The class given is cell-based, Streptococcus pneumoniae. To be noted: S. pneumoniae ATCC49619. The procedure: as §1, §2
For data set [11], the system named is sheep red blood cell (erythrocytes). In words: Hemolytic assay (in vitro toxicity). To be noted: 100 mg/L; sheep erythrocytes; percent hemolysis. The procedure: Antibacterial activity against Gram-positive and Gram-negative microorganisms was tested via broth macrodilution tests using CLSI methodology (Zhanel et al., 2008). Stock solutions of cationic lipids in water were brought to a concentration of 512 mg/L. Organisms were subcultured and isolated on blood agar, suspended in 3 mL of Mueller-Hinton broth at the turbidity of a […], and diluted to approximately 10^5 cfu/mL before introduction into tubes containing serially diluted lipopeptide antibiotic in Mueller-Hinton broth. Activity testing against S. pneumoniae used broth supplemented with laked horse blood to give 5% horse blood in experimental tubes. Turbidity of lipopeptide solution in broth required creation of control tubes lacking organisms serving as turbidity controls. All tubes were incubated overnight for 16-20 h at 37° C. […] All experiments were performed in duplicate. In-vitro toxicity was determined using a sheep red blood cell hemolytic assay as previously described (Dathe et al., 1996).
In vitro toxicity was determined using a sheep red blood cell (erythrocytes) hemolytic assay (Dathe et al., 1996). […] Erythrocytes were washed and resuspended in Tris buffered saline. The cell suspension was combined with varying concentrations (low to very high) of test and control antimicrobials (e.g., aminoglycosides and APTCs). The samples were centrifuged and the absorbance of the supernatants measured at 540 nm. Tris buffered saline and Triton X were used as negative and positive controls, respectively. The toxicity was assessed by percent hemolysis.

In data set [12] the test system is MRSA ATCC 33592. In words: MIC, broth macrodilution (CLSI). The class given is cell-based, methicillin-resistant Staphylococcus aureus. The following applies: for MIC: MRSA ATCC33592; for fold lower MIC (MRSA) compared to analogs 6 and 7: guanidinylated vs polyamine analog. The method, then: as §1, §2
Data set [13] relates to S. epidermidis ATCC 14990. Put plainly: MIC, broth macrodilution (CLSI). Format: cell-based, Staphylococcus epidermidis. To be noted: S. epidermidis ATCC14990. The method, then: as §1, §2
Data set [14] deals with E. coli (amikacin MIC 32 mg/L) CAN-ICU 63074. The following applies: E. coli CAN-ICU 63074; Zhanel et al., 2008; cited from earlier work.
The subject of data set [15] is MRSE CAN-ICU 61589. To be noted: Zhanel et al., 2008; cited from earlier work.
Data set [16] concerns P. aeruginosa (gentamicin-resistant) CAN-ICU 62308. To be noted: P. aeruginosa CAN-ICU 62308; Zhanel et al., 2008; cited from earlier work.
Data set [17] has as its system E. coli (gentamicin-resistant) CAN-ICU 61714. The following applies: E. coli CAN-ICU 61714; Zhanel et al., 2008; cited from earlier work.

By MIC is commonly meant the lowest concentration found to suppress growth. High values mean weaker potency, low ones greater potency.

Values after ≈ are worked out from the molar mass of the structure shown. Where only a bound is given, the exact number is not on record here.

As to `CCCCC/C=C\C/C=C\CCCCCCCC(=O)NCC1OC(OC2C(O)C(NC(=N)N)CC(NC(=N)N)C2OC2OC(CNC(=N)N)C(O)C(O)C2NC(=N)N)C(O)C1OC1OC(CNC(=N)N)C(O)C(O)C1NC(=N)N.O=C(O)C(F)(F)F.O=C(O)C(F)(F)F.O=C(O)C(F)(F)F.O=C(O)C(F)(F)F.O=C(O)C(F)(F)F.O=C(O)C(F)(F)F` (stereo not shown) [Compound 12, 1,3,2′,6′,2′″,6′″-Hexaammonium-guanidinyl-5″-deoxy-5″-N-(9Z,12Z,octadeca-di-ene-oyl)-neomycin hexakis(trifluoroacetate)], the MIC in data set [1] is 64 mg/L; in data set [2], 8 mg/L; in data set [3], 128 mg/L; in [4], 128 mg/L; in [5] it was 64 mg/L; in data set [6] (P. aeruginosa CAN-ICU 62308), 64 mg/L. Also, the MIC is reported as 64 mg/L in [7]; 64 mg/L in data set [8]; 8 mg/L in data set [9]; 128 mg/L in [10]; 16 mg/L in [12]; 4 mg/L in data set [13]. The “hemolytic activity at 100 mg/L” value in [11] is reported as 1%.
With `N=C(N)NCC1OC(OC2C(CNC(=O)CCCc3ccc4ccc5cccc6ccc3c4c56)OC(OC3C(O)C(NC(=N)N)CC(NC(=N)N)C3OC3OC(CNC(=N)N)C(O)C(O)C3NC(=N)N)C2O)C(NC(=N)N)C(O)C1O.O=C(O)C(F)(F)F.O=C(O)C(F)(F)F.O=C(O)C(F)(F)F.O=C(O)C(F)(F)F.O=C(O)C(F)(F)F.O=C(O)C(F)(F)F` (stereo not shown) [Compound 13, 1,3,2′,6′,2′″,6′″-Hexaammonium-guanidinyl-5″-deoxy-5″-N-((4-pyrenyl)-butanoyl)-neomycin hexakis(trifluoroacetate)], the MIC in data set [1] stood at 16 mg/L; in [2], 8 mg/L; in [3], 32 mg/L; in data set [4] it was 32 mg/L; in [5], 32 mg/L; in data set [6] (P. aeruginosa CAN-ICU 62308) it was 16 mg/L. The minimal inhibitory concentration (MIC) was 16 mg/L in [6] (gentamicin-resistant (as well as neomycin B and kanamycin A-resistant) P. aeruginosa strain); 32 mg/L in data set [7]; 32 mg/L in data set [8]; 8 mg/L in data set [9]; 64 mg/L in [10]; 8 mg/L in data set [12]. In addition, the MIC in [13] is on record as 8 mg/L. Besides, the “hemolytic activity at 100 mg/L” value in [11] was determined as 3%. For the same compound, the “fold lower MIC (MRSA) compared to analogs 6 and 7” value in [12] amounted to 32 fold.
Turning to `CC(CCC(=O)NCC1OC(OC2C(O)C(NC(=N)N)CC(NC(=N)N)C2OC2OC(CNC(=N)N)C(O)C(O)C2NC(=N)N)C(O)C1OC1OC(CNC(=N)N)C(O)C(O)C1NC(=N)N)C1CCC2C3C(O)CC4CC(O)CCC4(C)C3CC(O)C12C.O=C(O)C(F)(F)F.O=C(O)C(F)(F)F.O=C(O)C(F)(F)F.O=C(O)C(F)(F)F.O=C(O)C(F)(F)F.O=C(O)C(F)(F)F` (stereo not shown) [Compound 14, 1,3,2′,6′,2′″,6′″-Hexaammonium-guanidinyl-5″-deoxy-5″-N-(cholanoyl)-neomycin hexakis(trifluoroacetate)], the MIC in [1] was determined as 16 mg/L; in [2] it was 16 mg/L; in data set [3], 64 mg/L; in [4], 128 mg/L; in data set [5], 64 mg/L; in data set [6] (P. aeruginosa CAN-ICU 62308) it was 32 mg/L. Moreover, the MIC in data set [7] came to 32 mg/L; in data set [8], 32 mg/L; in data set [9] it was 8 mg/L; in data set [10] it was 64 mg/L; in data set [12], 16 mg/L; in data set [13], 4 mg/L. Further, the “hemolytic activity at 100 mg/L” value in data set [11] came out at 2%. Also, the “fold lower MIC (MRSA) compared to analogs 6 and 7” value in data set [12] came out at 8 fold.
As to `CCCCCCCCCCCCCCCC(=O)NCC1OC(OC2C(N)CC(N)C(OC3OC(CN)C(O)C(O)C3O)C2O)C(O)C(N)C1O.O=C(O)C(F)(F)F.O=C(O)C(F)(F)F.O=C(O)C(F)(F)F.O=C(O)C(F)(F)F` (stereo not shown) [Compound 15, 1,3,6′,3″-Tetraammonium-6″-deoxy-6″-N-(hexadecanoyl)-kanamycin-tetrakis-(trifluoroacetate)], the MIC was determined as 8 mg/L in data set [1]; 8 mg/L in data set [2]; 32 mg/L in [3]; 64 mg/L in data set [4]; 32 mg/L in data set [5]; 64 mg/L in data set [6] (P. aeruginosa CAN-ICU 62308). The MIC worked out at 32 mg/L in data set [7]; 8 mg/L in data set [8]; 2 mg/L in data set [9]; 64 mg/L in data set [10]; 16 mg/L in [12]; 2 mg/L in data set [13]. In addition, the “hemolytic activity at 100 mg/L” value in [11] is given as 20%.
For the compound `CCCCCCCCCCCCCCCC(=O)NCC1OC(OC2C(NC(=N)N)CC(NC(=N)N)C(OC3OC(CNC(=N)N)C(O)C(O)C3O)C2O)C(O)C(NC(=N)N)C1O.O=C(O)C(F)(F)F.O=C(O)C(F)(F)F.O=C(O)C(F)(F)F.O=C(O)C(F)(F)F` (stereo not shown) [Compound 16, 1,3,6′,3″-Tetraammonium-guanidinyl-6″-deoxy-6″-N-(hexadecanoyl)-kanamycin-tetrakis-(trifluoroacetate)], the MIC in data set [1] is 16 mg/L; in [2], 16 mg/L; in data set [3], 128 mg/L; in [4] it was 256 mg/L; in data set [5], 64 mg/L; in data set [6] (P. aeruginosa CAN-ICU 62308) it was 64 mg/L. Also, the MIC in data set [7] was determined as 64 mg/L; in data set [8], 16 mg/L; in data set [9] it was 8 mg/L; in [10], 128 mg/L; in data set [12], 8 mg/L; in [13], 8 mg/L. Besides, the “hemolytic activity at 100 mg/L” value in data set [11] turned out to be 6.7%.
Take `NCC[C@H](O)C(=O)N[C@@H]1C[C@H](N)[C@@H](O[C@H]2O[C@H](CN)[C@@H](O)[C@H](O)[C@H]2O)[C@H](O)[C@H]1O[C@H]1O[C@H](CO)[C@@H](O)[C@H](N)[C@H]1O` [amikacin]: the “MIC (strain description)” value in [14] is on record as 32 mg/L (≈ 54.6 µM).
For `Cc1nnc(SCC2=C(C(=O)O)N3C(=O)[C@@H](NC(=O)Cn4cnnn4)[C@H]3SC2)s1` [cefazolin], the “MIC (strain description)” value in data set [15] is reported as more than 32 mg/L.
Consider Gentamicin [reference compound], for which the “MIC (strain description)” value in data set [16] and in data set [17] was more than 32 mg/L throughout. Moreover, the minimum inhibitory concentration (MIC) amounted to 1 mg/L in data set [2]; 128 mg/L in data set [3]; 8 mg/L in data set [4]; 1 mg/L in [5]; 128 mg/L in data set [6] (P. aeruginosa CAN-ICU 62308); 8 mg/L in data set [7]. In addition, the MIC in data set [9] was 32 mg/L; in data set [10] it was 4 mg/L; in data set [12], 2 mg/L; in data set [13] it was 0.25 mg/L.
